Measured values from the kinase profiling compilation of Christmann-Franck et al. (2016).

Tests used:
Assay in all cases: radiometric filter-binding kinase assay
[1] = system: AKT1 (human), P31749 [S473D]
[2] = target: AURKB (human) (UniProt Q96GD4)
[3] = target: CDK2 CCNA2 (human) (UniProt P20248+P24941)
[4] = target: CHEK1 (human) (UniProt O14757)
[5] = target: CHEK2 (human) (UniProt O96017)
[6] = target: CSK (human) (UniProt P41240)
[7] = target: CaMK1 (human) (UniProt Q14012)
[8] = target: DYRK3 (human) (UniProt O43781)
[9] = target: EPHA2 (human) (UniProt P29317)
[10] = target: EPHA4 (human) (UniProt P54764)
[11] = target: EPHB1 (human) (UniProt P54762)
Sequence of EPHB1 (human) (P54762 whole entry, looked up): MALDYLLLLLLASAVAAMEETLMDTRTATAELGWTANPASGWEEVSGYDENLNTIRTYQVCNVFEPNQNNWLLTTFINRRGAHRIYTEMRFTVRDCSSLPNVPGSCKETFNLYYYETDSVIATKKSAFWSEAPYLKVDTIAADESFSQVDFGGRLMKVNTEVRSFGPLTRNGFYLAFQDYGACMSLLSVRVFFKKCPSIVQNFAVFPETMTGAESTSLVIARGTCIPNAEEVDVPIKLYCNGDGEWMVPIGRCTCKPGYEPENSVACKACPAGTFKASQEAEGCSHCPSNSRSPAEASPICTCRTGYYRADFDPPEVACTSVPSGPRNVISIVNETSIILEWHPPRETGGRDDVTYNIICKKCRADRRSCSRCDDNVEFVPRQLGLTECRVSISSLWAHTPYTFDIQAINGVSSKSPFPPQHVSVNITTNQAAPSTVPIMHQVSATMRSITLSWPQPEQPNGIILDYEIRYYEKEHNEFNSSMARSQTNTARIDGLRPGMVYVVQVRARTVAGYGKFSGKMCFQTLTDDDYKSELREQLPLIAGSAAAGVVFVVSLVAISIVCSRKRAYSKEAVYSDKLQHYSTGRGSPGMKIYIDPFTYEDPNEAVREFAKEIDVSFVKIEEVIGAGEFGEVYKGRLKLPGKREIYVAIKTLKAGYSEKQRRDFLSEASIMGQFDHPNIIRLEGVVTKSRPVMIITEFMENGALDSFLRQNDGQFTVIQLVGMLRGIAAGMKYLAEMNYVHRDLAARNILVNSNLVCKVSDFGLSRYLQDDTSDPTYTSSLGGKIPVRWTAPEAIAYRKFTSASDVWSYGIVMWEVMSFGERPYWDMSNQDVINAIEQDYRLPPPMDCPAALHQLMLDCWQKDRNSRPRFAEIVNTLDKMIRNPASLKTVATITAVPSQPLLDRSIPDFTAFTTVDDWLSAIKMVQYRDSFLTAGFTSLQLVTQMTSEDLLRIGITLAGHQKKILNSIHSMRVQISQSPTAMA

[12] = target: EPHB2 (human) (UniProt P29323)
[13] = target: EPHB3 (human) (UniProt P54753)
[14] = target: GCK (human) (UniProt Q12851); details: compound 1.0 µM
[15] = target: IKBKB (human) (UniProt O14920)
[16] = system: LCK (mouse); details: accession and sequence are those of the human protein
[17] = target: MAP2K1 (human) (UniProt Q02750)
[18] = target: MAP3K11 (human) (UniProt Q16584)
[19] = target: MAP3K7 TAB1 (human) (UniProt Q15750+O43318)
[20] = target: MAPK10 (human) (UniProt P53779); details: compound 10.0 µM
[21] = target: MAPK8 (human) (UniProt P45983)
Sequence of MAPK8 (human) (P45983 whole entry, looked up): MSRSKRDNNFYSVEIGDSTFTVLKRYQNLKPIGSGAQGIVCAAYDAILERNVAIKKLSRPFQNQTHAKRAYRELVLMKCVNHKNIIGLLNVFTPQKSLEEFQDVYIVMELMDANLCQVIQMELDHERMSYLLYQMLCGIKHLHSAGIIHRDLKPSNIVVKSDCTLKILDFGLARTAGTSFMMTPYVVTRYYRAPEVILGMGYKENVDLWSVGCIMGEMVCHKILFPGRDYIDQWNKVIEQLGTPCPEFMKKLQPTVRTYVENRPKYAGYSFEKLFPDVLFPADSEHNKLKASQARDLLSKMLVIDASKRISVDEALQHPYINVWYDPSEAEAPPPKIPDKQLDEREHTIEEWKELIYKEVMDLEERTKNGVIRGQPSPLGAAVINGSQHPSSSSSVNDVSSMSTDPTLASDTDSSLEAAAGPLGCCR

[22] = target: MARK2 (human) (UniProt Q7KZI7)
[23] = target: MINK1 (human) (UniProt Q8N4C8)
Sequence of MINK1 (human) (Q8N4C8 whole entry, looked up): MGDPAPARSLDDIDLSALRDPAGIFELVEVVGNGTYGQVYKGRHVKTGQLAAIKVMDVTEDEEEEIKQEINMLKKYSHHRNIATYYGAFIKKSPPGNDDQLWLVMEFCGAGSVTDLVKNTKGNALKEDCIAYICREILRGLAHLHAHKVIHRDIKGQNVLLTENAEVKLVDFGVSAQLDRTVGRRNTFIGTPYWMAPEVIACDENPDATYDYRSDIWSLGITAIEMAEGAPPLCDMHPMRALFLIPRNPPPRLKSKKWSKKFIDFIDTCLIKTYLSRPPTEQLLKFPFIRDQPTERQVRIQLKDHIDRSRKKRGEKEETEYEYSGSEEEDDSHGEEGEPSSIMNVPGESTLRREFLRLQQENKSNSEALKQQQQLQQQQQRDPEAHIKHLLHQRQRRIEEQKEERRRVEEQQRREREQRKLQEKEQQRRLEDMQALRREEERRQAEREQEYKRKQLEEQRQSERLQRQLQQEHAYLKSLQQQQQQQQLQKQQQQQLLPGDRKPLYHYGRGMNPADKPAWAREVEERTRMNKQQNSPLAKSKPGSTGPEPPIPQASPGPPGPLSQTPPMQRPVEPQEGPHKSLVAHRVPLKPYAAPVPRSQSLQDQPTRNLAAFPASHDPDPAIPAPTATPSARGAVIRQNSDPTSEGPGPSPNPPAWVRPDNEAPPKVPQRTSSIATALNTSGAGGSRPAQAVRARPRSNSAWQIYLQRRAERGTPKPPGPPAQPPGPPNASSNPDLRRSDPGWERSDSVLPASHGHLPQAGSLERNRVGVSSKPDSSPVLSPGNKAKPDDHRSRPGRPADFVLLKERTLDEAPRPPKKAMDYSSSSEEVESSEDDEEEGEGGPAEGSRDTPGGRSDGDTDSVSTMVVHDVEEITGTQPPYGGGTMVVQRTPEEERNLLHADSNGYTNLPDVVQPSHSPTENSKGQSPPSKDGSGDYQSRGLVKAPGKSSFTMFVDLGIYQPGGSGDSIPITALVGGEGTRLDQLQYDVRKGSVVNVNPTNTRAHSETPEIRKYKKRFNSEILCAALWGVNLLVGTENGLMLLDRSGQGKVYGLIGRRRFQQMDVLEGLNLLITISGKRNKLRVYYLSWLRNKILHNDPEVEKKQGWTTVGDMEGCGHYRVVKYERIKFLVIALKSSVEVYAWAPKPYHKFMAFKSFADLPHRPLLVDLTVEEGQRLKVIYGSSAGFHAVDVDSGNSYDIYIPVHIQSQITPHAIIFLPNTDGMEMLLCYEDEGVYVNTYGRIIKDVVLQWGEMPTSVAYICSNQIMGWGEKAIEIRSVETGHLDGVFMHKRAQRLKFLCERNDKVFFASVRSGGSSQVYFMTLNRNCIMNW

[24] = target: MST4 (human) (UniProt Q9P289)
Sequence of MST4 (human) (Q9P289 whole entry, looked up): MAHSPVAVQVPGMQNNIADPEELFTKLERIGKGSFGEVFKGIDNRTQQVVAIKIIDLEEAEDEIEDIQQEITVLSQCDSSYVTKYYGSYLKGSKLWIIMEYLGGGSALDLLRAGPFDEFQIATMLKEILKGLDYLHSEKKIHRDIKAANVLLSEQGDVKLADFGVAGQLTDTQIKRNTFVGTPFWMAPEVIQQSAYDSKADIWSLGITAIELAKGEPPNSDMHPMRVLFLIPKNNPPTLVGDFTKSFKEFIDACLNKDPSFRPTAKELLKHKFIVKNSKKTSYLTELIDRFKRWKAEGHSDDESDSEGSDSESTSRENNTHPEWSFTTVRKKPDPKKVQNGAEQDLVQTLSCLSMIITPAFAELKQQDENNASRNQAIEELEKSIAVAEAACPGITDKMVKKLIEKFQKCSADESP

[25] = target: MYLK (human) (UniProt Q15746); details: compound 10.0 µM
[26] = target: NUAK1 (human) (UniProt O60285)
[27] = system: PAK2 (human), Q13177 [T402E]; details: compound 10.0 µM
[28] = target: PAK4 (human) (UniProt O96013); details: compound 10.0 µM
[29] = target: PAK6 (human) (UniProt Q9NQU5)
[30] = target: PKN2 (human) (UniProt Q16513)
[31] = system: ROCK2 (rat); details: compound 1.0 µM; accession and sequence are those of the human protein
[32] = target: RPS6KA3 KD1 KD2 (human) (UniProt P51812)
[33] = target: SRC (human) (UniProt P12931)
[34] = target: TAOK1 (human) (UniProt Q7L7X3)
[35] = target: TBK1 (human) (UniProt Q9UHD2)
[36] = target: TTK (human) (UniProt P33981)
Sequence of TTK (human) (P33981 whole entry, looked up): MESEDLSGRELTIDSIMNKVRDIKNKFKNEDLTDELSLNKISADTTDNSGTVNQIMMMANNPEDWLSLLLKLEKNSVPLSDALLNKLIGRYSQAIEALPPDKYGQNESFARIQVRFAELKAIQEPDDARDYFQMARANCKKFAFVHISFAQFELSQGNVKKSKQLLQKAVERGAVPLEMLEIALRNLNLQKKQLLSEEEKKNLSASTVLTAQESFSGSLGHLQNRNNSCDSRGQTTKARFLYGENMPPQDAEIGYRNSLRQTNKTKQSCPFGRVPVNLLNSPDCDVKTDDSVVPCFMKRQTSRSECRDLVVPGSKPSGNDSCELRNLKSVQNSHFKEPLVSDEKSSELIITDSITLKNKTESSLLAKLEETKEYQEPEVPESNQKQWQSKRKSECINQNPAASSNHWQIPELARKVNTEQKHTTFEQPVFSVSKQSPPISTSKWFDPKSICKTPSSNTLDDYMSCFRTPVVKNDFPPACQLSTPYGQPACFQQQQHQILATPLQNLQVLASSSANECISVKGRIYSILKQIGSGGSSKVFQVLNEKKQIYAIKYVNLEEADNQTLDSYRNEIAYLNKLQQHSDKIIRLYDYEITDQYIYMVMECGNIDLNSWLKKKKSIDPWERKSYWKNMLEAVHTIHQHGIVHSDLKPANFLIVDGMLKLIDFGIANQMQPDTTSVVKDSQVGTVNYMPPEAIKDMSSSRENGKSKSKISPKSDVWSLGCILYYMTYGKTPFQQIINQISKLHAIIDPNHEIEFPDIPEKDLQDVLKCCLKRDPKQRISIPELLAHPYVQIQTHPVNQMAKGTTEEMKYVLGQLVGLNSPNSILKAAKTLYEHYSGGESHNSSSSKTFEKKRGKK

Sequence of CHEK2 (human) (O96017 whole entry, looked up): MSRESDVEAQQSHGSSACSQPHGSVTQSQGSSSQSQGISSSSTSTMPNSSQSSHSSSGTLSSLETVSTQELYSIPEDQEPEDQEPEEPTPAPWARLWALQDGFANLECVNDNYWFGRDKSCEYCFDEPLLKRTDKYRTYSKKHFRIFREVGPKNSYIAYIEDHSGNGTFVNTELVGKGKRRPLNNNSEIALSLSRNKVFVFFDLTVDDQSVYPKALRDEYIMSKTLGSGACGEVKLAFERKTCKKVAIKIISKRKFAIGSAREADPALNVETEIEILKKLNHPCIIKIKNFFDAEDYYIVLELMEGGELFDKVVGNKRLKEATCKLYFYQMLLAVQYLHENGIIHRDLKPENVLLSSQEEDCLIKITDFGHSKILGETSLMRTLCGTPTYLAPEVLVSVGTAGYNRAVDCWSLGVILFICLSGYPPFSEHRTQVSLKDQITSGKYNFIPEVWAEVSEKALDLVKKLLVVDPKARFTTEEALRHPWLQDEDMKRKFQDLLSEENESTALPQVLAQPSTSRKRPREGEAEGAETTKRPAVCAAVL
Sequence of AKT1 (human), P31749 [S473D] (P31749 whole entry S473D, looked up): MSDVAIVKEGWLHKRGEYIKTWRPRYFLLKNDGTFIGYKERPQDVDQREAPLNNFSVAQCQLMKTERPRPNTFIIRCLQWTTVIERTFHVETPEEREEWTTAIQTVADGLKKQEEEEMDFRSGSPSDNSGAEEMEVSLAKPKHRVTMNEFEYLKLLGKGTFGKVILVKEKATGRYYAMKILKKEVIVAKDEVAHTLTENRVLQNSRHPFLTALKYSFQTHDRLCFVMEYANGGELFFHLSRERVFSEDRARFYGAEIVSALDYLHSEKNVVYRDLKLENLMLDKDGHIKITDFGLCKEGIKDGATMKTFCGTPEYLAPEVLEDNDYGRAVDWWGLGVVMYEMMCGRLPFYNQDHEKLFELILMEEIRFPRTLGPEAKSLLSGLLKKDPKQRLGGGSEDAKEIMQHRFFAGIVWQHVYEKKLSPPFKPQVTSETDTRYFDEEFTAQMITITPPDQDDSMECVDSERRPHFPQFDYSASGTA

residual activity ([1]; compound 1.0 µM): 107%
residual activity ([1]; compound 10.0 µM): 104%
residual activity ([2]; compound 1.0 µM): 87%
residual activity ([2]; compound 10.0 µM): 82%
residual activity ([3]; compound 1.0 µM): 110%
residual activity ([3]; compound 10.0 µM): 109%
residual activity ([4]; compound 1.0 µM): 130%
residual activity ([4]; compound 10.0 µM): 122%
residual activity ([5]; compound 1.0 µM): 95%
residual activity ([5]; compound 10.0 µM): 114%
residual activity ([6]; compound 1.0 µM): 93%
residual activity ([6]; compound 10.0 µM): 98%
residual activity ([7]; compound 1.0 µM): 96%
residual activity ([7]; compound 10.0 µM): 91%
residual activity ([8]; compound 1.0 µM): 85%
residual activity ([8]; compound 10.0 µM): 85%
residual activity ([9]; compound 1.0 µM): 86%
residual activity ([9]; compound 10.0 µM): 94%
residual activity ([10]; compound 1.0 µM): 86%
residual activity ([10]; compound 10.0 µM): 89%
residual activity ([11]; compound 1.0 µM): 95%
residual activity ([11]; compound 10.0 µM): 115%
residual activity ([12]; compound 1.0 µM): 64%
residual activity ([12]; compound 10.0 µM): 74%
residual activity ([13]; compound 1.0 µM): 101%
residual activity ([13]; compound 10.0 µM): 113%
residual activity [14]: 90%
residual activity ([15]; compound 1.0 µM): 88%
residual activity ([15]; compound 10.0 µM): 103%
residual activity ([16]; compound 1.0 µM): 92%
residual activity ([16]; compound 10.0 µM): 109%
residual activity ([17]; compound 1.0 µM): 18%
residual activity ([17]; compound 10.0 µM): 2%
residual activity ([18]; compound 1.0 µM): 83%
residual activity ([18]; compound 10.0 µM): 92%
residual activity ([19]; compound 1.0 µM): 77%
residual activity ([19]; compound 10.0 µM): 82%
residual activity [20]: 85%
residual activity ([21]; compound 1.0 µM): 91%
residual activity ([21]; compound 10.0 µM): 117%
residual activity ([22]; compound 1.0 µM): 104%
residual activity ([22]; compound 10.0 µM): 103%
residual activity ([23]; compound 1.0 µM): 117%
residual activity ([23]; compound 10.0 µM): 144%
residual activity ([24]; compound 1.0 µM): 103%
residual activity ([24]; compound 10.0 µM): 104%
residual activity [25]: 98%
residual activity ([26]; compound 1.0 µM): 89%
residual activity ([26]; compound 10.0 µM): 107%
residual activity [27]: 91%
residual activity [28]: 65%
residual activity ([29]; compound 1.0 µM): 95%
residual activity ([29]; compound 10.0 µM): 105%
residual activity ([30]; compound 1.0 µM): 82%
residual activity ([30]; compound 10.0 µM): 83%
residual activity [31]: 84%
residual activity ([32]; compound 1.0 µM): 104%
residual activity ([32]; compound 10.0 µM): 92%
residual activity ([33]; compound 1.0 µM): 104%
residual activity ([33]; compound 10.0 µM): 91%
residual activity ([34]; compound 1.0 µM): 101%
residual activity ([34]; compound 10.0 µM): 109%
residual activity ([35]; compound 1.0 µM): 117%
residual activity ([35]; compound 10.0 µM): 101%
residual activity ([36]; compound 1.0 µM): 98%
residual activity ([36]; compound 10.0 µM): 121%
SMILES: O=C(NOC[C@H](O)CO)c1ccc(F)c(F)c1Nc1ccc(I)cc1Cl
